Activity calls are given as the source filed them. No cut-off for these calls is given here.
Tests used:
[1] = Cytotoxicity against HEK293T cells assessed as cell viability by MTT assay; format: toxicity, cell-based, HEK-293T; conditions: human
[2] = tested on: RAW264.7; experiment: Cytotoxicity against mouse RAW264.7 cells assessed as cell viability by MTT assay
[3] = Cytotoxicity against HUVEC cells assessed as cell viability by MTT assay; format: toxicity, cell-based; conditions: human
[4] = tested on: THP-1; experiment: Cytotoxicity against human THP-1 cells assessed as cell viability by MTT assay
[5] = tested on: Mus musculus; experiment: Protection against cisplatin-induced C57BL/6J mouse assessed as effect on inflammatory cell infiltration in spleen at 10 to 20 mg/kg, ip pretreated with compound for 1 hr followed by cisplatin induction and measured after 4 hrs by H and E staining based analysis; format: functional, organism-based; conditions: dose 10-20 mg/kg, time 5.0 hrs
[6] = tested on: Mus musculus; experiment: Protection against cisplatin-induced C57BL/6J mouse assessed as effect on fibrotic tissue proliferation in spleen at 10 to 20 mg/kg, ip pretreated with compound for 1 hr followed by cisplatin induction and measured after 4 hrs by H and E staining based analysis; format: functional, organism-based; conditions: dose 10-20 mg/kg, time 5.0 hrs
[7] = tested on: Mus musculus; experiment: Anti-inflammatory activity in cisplatin-induced acute kidney injury C57BL/6J mouse model assessed as reduction in kidney index at 10 to 20 mg/kg, ip; format: functional, organism-based; conditions: dose 10-20 mg/kg
[8] = molecular target: Stimulator of interferon genes protein (Homo sapiens) (UniProt Q86WV6); experiment: Inhibition of STING activation in human THP-1 cells assessed as reduction in SR717-induced IFNbeta mRNA expression at 0.03 to 0.3 uM pretreated with compound for 1 hr followed by SR717 induction and measured after 4 hrs by qPCR analysis; format: cell-based; conditions: dose 0.03-0.3 µM, time 5.0 hrs
[9] = tested on: Mus musculus; experiment: Protection against cisplatin-induced C57BL/6J mouse assessed as reduction in inflammatory cell exudation in kidney at 10 to 20 mg/kg, ip pretreated with compound for 1 hr followed by cisplatin induction and measured after 4 hrs by H and E staining based analysis; format: functional, organism-based; conditions: dose 10-20 mg/kg, time 5.0 hrs
[10] = tested on: Mus musculus; experiment: Protection against cisplatin-induced C57BL/6J mouse assessed as reduction in tubular epithelial edema in kidney at 10 to 20 mg/kg, ip pretreated with compound for 1 hr followed by cisplatin induction and measured after 4 hrs by H and E staining based analysis; format: functional, organism-based; conditions: dose 10-20 mg/kg, time 5.0 hrs
[11] = molecular target: T1, Stimulator of interferon genes protein (Mus musculus) (UniProt Q3TBT3); experiment: Binding affinity to STING in mouse RAW264.7 cells assessed as increase in thermal stability at 30 uM 47 to 62 degreeC incubated for 8 hrs by CETSA analysis; format: cell-based
T1 sequence (whole entry): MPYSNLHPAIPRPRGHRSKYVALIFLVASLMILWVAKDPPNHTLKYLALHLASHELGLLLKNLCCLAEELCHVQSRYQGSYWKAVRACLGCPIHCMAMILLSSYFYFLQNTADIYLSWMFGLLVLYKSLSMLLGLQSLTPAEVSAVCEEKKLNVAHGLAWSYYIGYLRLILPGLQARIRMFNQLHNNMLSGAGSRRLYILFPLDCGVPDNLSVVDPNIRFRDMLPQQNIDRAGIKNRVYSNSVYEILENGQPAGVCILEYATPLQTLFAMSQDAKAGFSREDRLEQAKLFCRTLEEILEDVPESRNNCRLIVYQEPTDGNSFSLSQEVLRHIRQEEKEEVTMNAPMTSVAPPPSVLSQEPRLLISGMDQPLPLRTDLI

[12] = tested on: Mus musculus; experiment: Renoprotective activity in cisplatin-induced acute kidney injury C57BL/6J mouse model assessed as reduction in […] level at 10 to 20 mg/kg, ip; format: functional, organism-based; conditions: dose 10-20 mg/kg
[13] = tested on: Mus musculus; experiment: Protection against cisplatin-induced C57BL/6J mouse assessed as reduction in vacuole-like changes in kidney at 10 to 20 mg/kg, ip pretreated with compound for 1 hr followed by cisplatin induction and measured after 4 hrs by H and E staining based analysis; format: functional, organism-based; conditions: dose 10-20 mg/kg, time 5.0 hrs
[14] = molecular target: Stimulator of interferon genes protein (Homo sapiens) (UniProt Q86WV6); experiment: Inhibition of STING activation in human THP-1 cells assessed as reduction in SR717-induced CXCL10 mRNA expression at 0.03 to 0.3 uM pretreated with compound for 1 hr followed by SR717 induction and measured after 4 hrs by qPCR analysis; format: cell-based; conditions: dose 0.03-0.3 µM, time 5.0 hrs
[15] = tested on: Mus musculus; experiment: Anti-inflammatory activity in cisplatin-induced acute kidney injury C57BL/6J mouse model assessed as reduction in ALT level in plasma at 10 to 20 mg/kg, ip; format: functional, organism-based; conditions: dose 10-20 mg/kg
[16] = tested on: Mus musculus; experiment: Protection against cisplatin-induced C57BL/6J mouse assessed as reduction in tubular structure disintegration in kidney at 10 to 20 mg/kg, ip pretreated with compound for 1 hr followed by cisplatin induction and measured after 4 hrs by H and E staining based analysis; format: functional, organism-based; conditions: dose 10-20 mg/kg, time 5.0 hrs
[17] = tested on: Mus musculus; experiment: Protection against cisplatin-induced C57BL/6J mouse assessed as reduction in tubular obstruction in kidney at 10 to 20 mg/kg, ip pretreated with compound for 1 hr followed by cisplatin induction and measured after 4 hrs by H and E staining based analysis; format: functional, organism-based; conditions: dose 10-20 mg/kg, time 5.0 hrs
[18] = tested on: Mus musculus; experiment: Anti-inflammatory activity in cisplatin-induced acute kidney injury C57BL/6J mouse model assessed as reduction in AST level in plasma at 10 to 20 mg/kg, ip; format: functional, organism-based; conditions: dose 10-20 mg/kg
[19] = tested on: Mus musculus; experiment: Protection against cisplatin-induced C57BL/6J mouse assessed as effect on enlargement of splenic corpuscle in spleen at 10 to 20 mg/kg, ip pretreated with compound for 1 hr followed by cisplatin induction and measured after 4 hrs by H and E staining based analysis; format: functional, organism-based; conditions: dose 10-20 mg/kg, time 5.0 hrs
[20] = tested on: Mus musculus; experiment: Anti-inflammatory activity against MSA-2 induced C57BL/6 mouse model assessed as downregulation of TBK1 expression in spleen at 30 mg/kg, ip pretreated with compound for 1 hr followed by MSA-2 induction and measured after 4 hrs; format: functional, organism-based; conditions: time 5.0 hrs
[21] = Toxicity in male C57BL/6J mouse assessed as kidney damage at 10 mg/kg, ip by H and E staining based analysis; format: organism-based; conditions: in vivo
[22] = molecular target: T2, Interferon regulatory factor 3 (Homo sapiens) (UniProt Q14653); experiment: Inhibition of IRF3 phosphorylation in SR717-induced human THP-1 cells at 0.2 to 5 uM pretreated with compound for 1 hr followed by SR717 induction and measured after 4 hrs by Western blot analysis; format: cell-based; conditions: dose 0.2-5 µM, time 5.0 hrs
T2 sequence (whole entry): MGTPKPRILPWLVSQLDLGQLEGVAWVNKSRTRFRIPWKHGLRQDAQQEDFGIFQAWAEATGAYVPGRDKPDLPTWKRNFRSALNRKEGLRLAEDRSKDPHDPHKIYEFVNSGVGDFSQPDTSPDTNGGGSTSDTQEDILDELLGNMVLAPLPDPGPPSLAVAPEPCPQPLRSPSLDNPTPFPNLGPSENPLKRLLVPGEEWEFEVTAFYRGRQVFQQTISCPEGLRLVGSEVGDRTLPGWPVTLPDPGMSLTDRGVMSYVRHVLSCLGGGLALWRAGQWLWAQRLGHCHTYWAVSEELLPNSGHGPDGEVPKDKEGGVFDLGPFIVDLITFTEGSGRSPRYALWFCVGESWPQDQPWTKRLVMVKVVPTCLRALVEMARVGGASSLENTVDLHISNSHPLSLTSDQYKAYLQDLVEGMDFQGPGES

[23] = molecular target: T1, Stimulator of interferon genes protein (Mus musculus); experiment: Binding affinity to STING in mouse RAW264.7 cells assessed as increase in thermal stability at 30 uM 40 to 61 degreeC incubated for 8 hrs by CETSA analysis; format: cell-based
[24] = molecular target: T3, Serine/threonine-protein kinase TBK1 (Homo sapiens) (UniProt Q9UHD2); experiment: Inhibition of TBK1 phosphorylation in SR717-induced human THP-1 cells at 0.2 to 5 uM pretreated with compound for 1 hr followed by SR717 induction and measured after 4 hrs by Western blot analysis; format: cell-based; conditions: dose 0.2-5 µM, time 5.0 hrs
T3 sequence (whole entry): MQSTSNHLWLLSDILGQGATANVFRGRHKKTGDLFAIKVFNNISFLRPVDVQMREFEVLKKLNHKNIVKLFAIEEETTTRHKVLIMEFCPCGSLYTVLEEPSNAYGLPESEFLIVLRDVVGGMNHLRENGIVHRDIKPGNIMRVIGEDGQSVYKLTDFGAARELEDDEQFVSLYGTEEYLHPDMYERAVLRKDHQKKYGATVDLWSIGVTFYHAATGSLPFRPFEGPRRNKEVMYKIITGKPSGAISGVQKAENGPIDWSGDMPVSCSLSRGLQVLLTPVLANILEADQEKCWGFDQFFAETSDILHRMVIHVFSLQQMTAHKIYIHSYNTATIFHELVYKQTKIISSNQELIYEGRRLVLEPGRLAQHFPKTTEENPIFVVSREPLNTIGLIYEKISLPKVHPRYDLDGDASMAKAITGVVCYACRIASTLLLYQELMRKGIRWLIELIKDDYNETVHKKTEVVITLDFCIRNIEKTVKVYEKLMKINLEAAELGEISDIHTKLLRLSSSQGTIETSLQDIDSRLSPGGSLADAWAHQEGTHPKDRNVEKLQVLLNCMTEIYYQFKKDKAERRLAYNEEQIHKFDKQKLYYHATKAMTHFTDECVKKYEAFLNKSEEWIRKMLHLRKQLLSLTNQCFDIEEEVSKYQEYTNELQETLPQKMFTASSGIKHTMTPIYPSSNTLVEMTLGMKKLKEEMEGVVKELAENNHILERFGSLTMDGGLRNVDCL

[25] = tested on: Mus musculus; experiment: Anti-inflammatory activity against MSA-2 induced C57BL/6 mouse model assessed as reduction in splenic index at 30 mg/kg, ip pretreated with compound for 1 hr followed by MSA-2 induction and measured after 4 hrs; format: functional, organism-based; conditions: time 5.0 hrs
[26] = tested on: Mus musculus; experiment: Anti-inflammatory activity against MSA-2 induced C57BL/6 mouse model assessed as reduction in IL-6 level in plasma at 30 mg/kg, ip pretreated with compound for 1 hr followed by MSA-2 induction and measured after 4 hr; format: functional, organism-based; conditions: time 5.0 hrs
[27] = Toxicity in male C57BL/6J mouse assessed as body weight loss at 10 mg/kg, ip; format: organism-based; conditions: in vivo
[28] = tested on: Mus musculus; experiment: Renoprotective activity in cisplatin-induced acute kidney injury C57BL/6J mouse model assessed as reduction in […] level at 10 mg/kg, ip; format: functional, organism-based
[29] = tested on: Mus musculus; experiment: Renoprotective activity in cisplatin-induced acute kidney injury C57BL/6J mouse model assessed as reduction in BUN level at 10 mg/kg, ip; format: functional, organism-based
[30] = tested on: RAW264.7; experiment: Antiinflammatory activity in mouse RAW264.7 cells assessed as inhibition of LPS-induced NO release at 0.2 to 5 uM pretreated with compound for 1 hr; format: functional, cell-based; conditions: dose 0.2-5 µM
[31] = tested on: Mus musculus; experiment: Anti-inflammatory activity against MSA-2 induced C57BL/6 mouse model assessed as reduction in IFN-beta level in plasma at 30 mg/kg, ip pretreated with compound for 1 hr followed by MSA-2 induction and measured after 4 hr; format: functional, organism-based; conditions: time 5.0 hrs

Stimulator of interferon genes protein (Homo sapiens), sequence (Q86WV6 whole entry): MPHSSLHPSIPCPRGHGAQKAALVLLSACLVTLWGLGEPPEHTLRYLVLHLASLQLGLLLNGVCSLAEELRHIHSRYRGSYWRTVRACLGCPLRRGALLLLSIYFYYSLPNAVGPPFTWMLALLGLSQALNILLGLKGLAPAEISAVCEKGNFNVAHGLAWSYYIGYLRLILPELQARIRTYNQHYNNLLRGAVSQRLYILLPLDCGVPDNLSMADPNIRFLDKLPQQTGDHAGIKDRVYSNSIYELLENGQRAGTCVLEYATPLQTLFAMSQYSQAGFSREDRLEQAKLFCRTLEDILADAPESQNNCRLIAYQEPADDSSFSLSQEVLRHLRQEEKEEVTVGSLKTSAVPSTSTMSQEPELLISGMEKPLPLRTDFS

| Compound | IC50 [1] [µM] | IC50 [2] [nM] | IC50 [3] [µM] | IC50 [4] [µM] | Activity [20] | Activity [21] | Activity [25] | Activity [26] | Activity [27] | Activity [28] | Activity [29] | Activity [31] | also measured |
| --- | --- | --- | --- | --- | --- | --- | --- | --- | --- | --- | --- | --- | --- |
| O=C(/C=C/C=C/c1ccccc1)OCCc1ccc(NC(=O)c2ccc([N+](=O)[O-])o2)cc1 | 6.34 | 2620 | 7.89 | 4.6 |  |  |  |  |  |  |  |  |  |
| O=C(Nc1ccc(OCCCC(F)(F)F)cc1)Nc1c[nH]c2ccccc12 |  |  |  |  |  |  |  |  |  |  |  |  | Activity [5]: Active; Activity [6]: Active; Activity [7]: Active; inhibition [8]: Active; Activity [9]: Active; Activity [10]: Active; Activity [11]: Active; Activity [12]: Active; Activity [13]: Active; inhibition [14]: Active; Activity [15]: Active; Activity [16]: Active; Activity [17]: Active; Activity [18]: Active; Activity [19]: Active |
| O=C(Nc1ccc(OCCCC(F)(F)F)cc1)c1ccc([N+](=O)[O-])o1 | 11.3 | 5210 | 10.4 | 16.8 | Active | Non-toxic | Active | Active | Non-toxic | Active | Active | Active | inhibition [22]: Active; Activity [23]: Active; inhibition [24]: Active; Activity [30]: inactive |
| C/C=C/C=C/C(=O)OCc1ccc(NC(=O)c2ccc([N+](=O)[O-])o2)cc1 | 8.57 | 490 |  |  |  |  |  |  |  |  |  |  |  |
| CCCCc1ccc(NC(=O)c2ccc([N+](=O)[O-])o2)cc1 | 2.81 | 890 | 4.77 | 8.07 | Active | Non-toxic | Active | Active | Non-toxic | Active | Active | Active |  |
| O=C(/C=C/C=C/c1ccccc1)OCc1ccc(NC(=O)c2ccc([N+](=O)[O-])o2)cc1 | 7.43 | 530 |  |  |  |  |  |  |  |  |  |  |  |

From ChEMBL document CHEMBL6182877, “Design, synthesis, and activity evaluation of novel STING inhibitors based on C170 and H151” (Eur J Med Chem, 2025)
